# According to BindingDB's records for PubMed 39011823 (University of Lille):
# Molecular target: Leucyl-cystinyl aminopeptidase (Homo sapiens) (UniProt Q9UIQ6)
# Experiment: Inhibition of IRAP (unknown origin) using L-AMC as substrate
# Chain of Leucyl-cystinyl aminopeptidase (Homo sapiens) (Q9UIQ6 whole entry, looked up): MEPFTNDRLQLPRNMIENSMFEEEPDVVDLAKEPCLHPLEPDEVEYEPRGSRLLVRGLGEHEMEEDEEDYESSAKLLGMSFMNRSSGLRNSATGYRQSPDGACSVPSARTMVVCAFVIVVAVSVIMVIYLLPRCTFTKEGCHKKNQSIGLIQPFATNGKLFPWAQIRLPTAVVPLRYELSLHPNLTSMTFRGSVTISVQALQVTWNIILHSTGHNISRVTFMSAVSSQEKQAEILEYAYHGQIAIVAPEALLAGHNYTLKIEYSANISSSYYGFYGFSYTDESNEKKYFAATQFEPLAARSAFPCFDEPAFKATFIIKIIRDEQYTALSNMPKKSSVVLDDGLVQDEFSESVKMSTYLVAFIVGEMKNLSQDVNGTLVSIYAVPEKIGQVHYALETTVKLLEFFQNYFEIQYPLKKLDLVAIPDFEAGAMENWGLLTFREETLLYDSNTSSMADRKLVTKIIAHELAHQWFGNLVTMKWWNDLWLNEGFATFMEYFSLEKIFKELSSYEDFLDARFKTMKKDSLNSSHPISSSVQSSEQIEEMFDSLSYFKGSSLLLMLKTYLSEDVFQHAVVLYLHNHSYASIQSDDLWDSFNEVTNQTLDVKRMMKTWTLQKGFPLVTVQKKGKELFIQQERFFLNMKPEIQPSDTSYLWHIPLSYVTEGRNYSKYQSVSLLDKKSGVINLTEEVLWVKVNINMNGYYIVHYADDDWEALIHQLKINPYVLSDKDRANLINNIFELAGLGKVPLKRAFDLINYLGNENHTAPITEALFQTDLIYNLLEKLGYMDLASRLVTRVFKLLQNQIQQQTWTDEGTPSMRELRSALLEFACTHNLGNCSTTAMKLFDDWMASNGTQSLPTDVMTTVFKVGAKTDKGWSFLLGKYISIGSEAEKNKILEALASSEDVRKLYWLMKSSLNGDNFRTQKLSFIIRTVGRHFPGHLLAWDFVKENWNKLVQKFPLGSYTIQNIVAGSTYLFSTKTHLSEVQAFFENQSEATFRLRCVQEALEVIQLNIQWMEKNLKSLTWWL
row,Compound,IC50 [nM]
1,CC(C)C[C@H](CP(=O)(O)[C@@H](N)CCc1ccccc1)C(N)=O,218
2,COc1ccc(C(=O)O)cc1S(=O)(=O)N(C)c1cc(C(F)(F)F)ccc1N1CCN(C)CC1,> 200000
3,CC(C)C[C@@H](CP(=O)(O)[C@@H](N)CCc1ccccc1)C(N)=O,344
4,COc1ccc(C(=O)O)cc1S(=O)(=O)Nc1cc(C(F)(F)F)ccc1N1CCCCC1,> 200000
5,C#C[C@H](CP(=O)(O)[C@@H](N)CCc1ccccc1)C(=O)N[C@@H](Cc1ccccc1)C(N)=O,2
6,COc1ccc(C(=O)O)cc1S(=O)(=O)N(C)c1cc(C(F)(F)F)ccc1N1CCCCC1,160000

# Further lines, results first:
row,IC50 [nM],Compound
1,84,"O=C(C[C@H](Cc1ccc(O)cc1)n1nncc1CNS(=O)(=O)c1ccc(-c2ccccn2)s1)NO [US20240101542, Compound 33]"
2,383,"COc1ccc(C[C@@H](C(=O)NO)n2cc(CNS(=O)(=O)c3ccc(-c4ccccc4)s3)nn2)cc1 [US20240101542, Compound 24]"
3,186,"COc1ccc(C[C@@H](C(=O)NO)n2cc(CNS(=O)(=O)c3ccc(-c4ccccn4)s3)nn2)cc1 [US20240101542, Compound 25]"
4,560,"O=C(NO)[C@H](Cc1ccc(Oc2ccccc2)cc1)n1cc(CNS(=O)(=O)c2ccc(-c3ccccn3)s2)nn1 [US20240101542, Compound 23]"

# Molecular target: Leucyl-cystinyl aminopeptidase (Homo sapiens) (UniProt Q9UIQ6)
# Experiment: Inhibition of IRAP (unknown origin) using L-pNA as substrate
row,IC50 [nM],Compound
1,2100,O=S(=O)(Nc1ccccc1)c1ccccc1 [phenyl(phenylsulfonyl)amine]

# Molecular target: Insulin-regulated aminopeptidase (Homo sapiens)
# Experiment: Inhibition of human recombinant IRAP expressed in baculovirus infected Sf9 cells using L-AMC as substrate incubated for 5 to 10 mins by Michaelis-Menten analysis
row,IC50 [nM],Compound
1,34,NC1CCc2c(Br)ccc(Br)c2CC1=O (stereo not drawn)
2,120,NC1CCc2c(Br)ccc(-c3ccccc3)c2CC1=O (stereo not drawn)
